Test results taken from patent US20150376196A1, “4-SUBSTITUTED PYRROLO- AND PYRAZOLO-DIAZEPINES” (BAYER PHARMA AKTIENGESELLSCHAFT, priority 2013, published 2015).
pIC50: −log10 of the molar value. Read-outs that look alike come from different tables or passages of the source.

How the values were obtained:
BRD4 (BD1) = target: T1, BRD4 (BD1) (Homo sapiens, UniProt O60885); assay: Binding assay BRD4/acetylated peptide H4 (TR-FRET protein-protein interaction assay)
T1 construct: amino acids 67-152, longer constructs also being possible, preferably amino acids 44-168; made in house; host or cells: E. coli
From the text: To assess the BRD4 binding strength of the substances described in this application, the ability thereof to inhibit the interaction between BRD4 (BD1) and acetylated histone H4 in a dose-dependent manner was quantified.
For this purpose, a time-resolved fluorescence resonance energy transfer (TR-FRET) assay was used, which measures the binding between N-terminally His6-tagged BRD4 (BD1) (amino acids 67-152, longer constructs also being possible, preferably amino acids 44-168) and a synthetic acetylated histone H4 (Ac-H4) peptide with sequence GRGK(Ac)GGK(Ac)GLGK(Ac)GGAK(Ac)RHGSGSK-biotin. The recombinant BRD4 protein produced in-house according to Filippakopoulos et al., Nature, 2010, 468:1119-1123 was expressed in E. coli and purified by means of (Ni-NTA) affinity and (Sephadex G-75) size exclusion chromatography. The Ac-H4 peptide can be purchased, for example, from Biosyntan (Berlin, Germany).
In the assay, typically 11 different concentrations of each substance (0.1 nM, 0.33 nM, 1.1 nM, 3.8 nM, 13 nM, 44 nM, 0.15 μM, 0.51 μM, 1.7 μM, 5.9 μM and 20 μM) were analysed as duplicates on the same microtitre plate. For this purpose, 100-fold concentrated solutions in DMSO were prepared by serial dilutions (1:3.4) of a 2 mM stock solution into a clear, 384-well microtitre plate (Greiner Bio-One, Frickenhausen, Germany). From this, 50 nl were transferred into a black test plate (Greiner Bio-One, Frickenhausen, Germany). The test was started by the addition of 2 μl of a 2.5-fold concentrated BRD4 solution (final concentration typically 10 nM in the 5 μl of reaction volume) in aqueous assay buffer [50 mM HEPES pH 7.5, 50 mM sodium chloride (NaCl), 0.25 mM CHAPS and 0.05% serum albumin (BSA)] to the substances in the test plate. This was followed by a 10-minute incubation step at 22° C. for the pre-equilibration of putative complexes between BRD4 and the substances.
The mixture was then incubated in the dark at 22° C. for one hour and then at 4° C. for at least 3 hours and for no longer than overnight. The formation of BRD4/Ac-H4 complexes was determined by the measurement of the resonance energy transfer from the streptavidin-Eu cryptate to the anti-6His-XL665 antibody present in the reaction. For this purpose, the fluorescence emission was measured at 620 nm and 665 nm after excitation at 330-350 nm in a TR-FRET measuring instrument, for example a Rubystar or Pherastar (both from BMG Lab Technologies, Offenburg, Germany) or a Viewlux (Perkin-Elmer). The ratio of the emissions at 665 nm and at 622 nm was taken as an indicator of the amount of BRD4/Ac-H4 complexes formed.
The data (ratios) obtained were normalized, with 0% inhibition corresponding to the mean from the measurements for a set of controls (typically 32 data points) in which all the reagents were present. In these, in place of test substances, 50 nl of DMSO (100%) were used Inhibition of 100% corresponded to the mean from the measurements for a set of controls (typically 32 data points) in which all the reagents except BRD4 were present. The IC50 was determined by regression analysis based on a 4-parameter equation (minimum, maximum, IC50, Hill; Y=max+(min−max)/(1+(X/IC50)^Hill)).

MOLM-13 cells = assay: Cell proliferation assay (alamarBlue), MOLM-13; type: cell-based; settings: Homo sapiens, Leukaemia, 96 hours, inhibition of cell proliferation
Procedure: (§1) In accordance with the invention, the ability of the substances to inhibit cell proliferation was determined Cell viability was determined by means of the alamarBlue® reagent (Invitrogen) in a Victor X3 Multilabel Reader (Perkin Elmer). The excitation wavelength was 530 nm and the emission wavelength […].
The MOLM-13 cells (DSMZ, ACC 554) were sown at a concentration of 4000 cells/well in 100 μl of growth medium (RPMI1640, 10% FCS) on 96-well microtitre plates.
(§2) The MDA-MB-231 cells (DSMZ, ACC 732) were sown at a concentration of 4000 cells/well in 100 μl of growth medium (DMEM/Ham's F12 medium, 10% FCS) on 96-well microtitre plates. After overnight incubation at 37° C., the fluorescence values (CI values) were determined. Then the plates were treated with various substance dilutions (1E-5 M, 3E-6 M, 1E-6 M, 3E-7 M, 1E-7 M, 3E-8 M, 1E-8 M) and incubated at 37° C. for 72 (MV-4-11, LOX-IMVI cells), 96 (MOLM-13, B16F10, […] cells), 120 (MOLP-8, KMS-12-PE cells) or 168 (LAPC-4 cells) hours. Subsequently, the fluorescence values were determined (CO values). For the data analysis, the CI values were subtracted from the CO values and the results were compared between cells which had been treated with various dilutions of the substance or only with buffer solution. The ICso values (substance concentration needed for 50% inhibition of cell proliferation) were calculated therefrom.
(§3) The substances were tested in the cell lines in Table 1, which represent the indications specified by way of example: […]

LAPC-4 cells = assay: Cell proliferation assay (alamarBlue), LAPC-4; type: cell-based; settings: Homo sapiens, LAPC4, Prostate, 1 nM methyltrienolone, 168 hours, inhibition of cell proliferation
Procedure: as §1
The LAPC-4 cells (ATCC, PTA-1441TM) were sown at a concentration of 4000 cells/well in 100 μl of growth medium (RPMI1640, 2 mM L-glutamine, 10% cFCS) on 96-well microtitre plates. One day later, the LAPC-4 cells were treated with 1 nM methyltrienolone and various substance dilutions.
as §2, §3

[1] = BRD4 (BD1) / acetylated histone H4 peptide, TR-FRET, read-out: IC50 (BRD4)

Row | Compound | pIC50 (BRD4 (BD1); [1]) | pIC50 (BRD4 (BD1)) | pIC50 (MOLM-13 cells) | pIC50 (LAPC-4 cells)
1 | CCNC(=O)CC1N=C(c2ccc(Cl)cc2)c2nn(C)cc2-n2c(C)nnc21 (stereo not drawn) [Example 18, 2-[6-(4-Chlorophenol)-1,8-dimethyl-4,8-dihydropyrazolo[3,4-f][1,2,4]triazolo[4,3-a][1,4]diazepin-4-yl]-N-ethylacetamide] | 6.11 |  |  | 
2 | Cc1c2c(cn1C)-n1c(C)nnc1[C@H](CC(=O)OC(C)(C)C)N=C2c1ccccc1 [Example 4, (−)-2-(4S)-(1,7,8-Trimethyl-6-phenyl-4,8-dihydropyrrolo[3,4f][1,2,4]triazolo[4,3-a][1,4]diazepin-4-yl)acetic acid tert-butyl ester] |  | 6.51 |  | 
3 | Cc1c2c(cn1C)-n1c(C)nnc1[C@H](CC(=O)N1CCN(C(=O)OC(C)(C)C)CC1)N=C2c1ccc(Cl)cc1 [Example 22, (−)-4-{[(4S)-6-(4-Chlorophenyl)-1,7,8-trimethyl-4,8-dihydropyrrolo[3,4-f][1,2,4]triazolo[4,3-a][1,4]diazepin-4-yl]acetyl}piperazine-1-carboxylic acid tert-butyl ester] | 7.70 |  | 6.14 | 6.47
4 | Cc1c2c(cn1C)-n1c(C)nnc1C(Cc1nc(C(C)(C)C)no1)N=C2c1ccc(Cl)cc1 (stereo not drawn) [Example 31, 4-[(3-tert-Butyl-1,2,4-oxadiazol-5-yl)methyl]-6-(4-chlorophenyl)-1,7,8-trimethyl-4,8-dihydropyrrolo[3,4-f][1,2,4]triazolo[4,3-a][1,4]diazepine] | 6.31 |  | 6.31 | 6.46
5 | CC(=O)N1CC(NC(=O)C[C@@H]2N=C(c3ccc(Cl)cc3)c3c(cn(C)c3C)-n3c(C)nnc32)C1 [Example 9, N-(1-Acetylazetidin-3-yl)-2-(4S)-[6-(4-chlorophenyl)-1,7,8-trimethyl-4,8-dihydropyrrolo[3,4-f][1,2,4]triazolo[4,3-a][1,4]diazepin-4-yl]acetamide] | 6.96 |  | 6.21 | 6.26
6 | Cc1c2c(cn1C)-n1c(C)nnc1C(Cc1nc(C3CC3)no1)N=C2c1ccc(Cl)cc1 (stereo not drawn) [Example 24, 6-(4-Chlorophenyl)-4-[(3-cyclopropyl-1,2,4-oxadiazol-5-yl)methyl]-1,7,8-trimethyl-4,8-dihydropyrrolo[3,4-f][1,2,4]triazolo[4,3-a][1,4]diazepine] | 7.30 |  | 7.10 | 
7 | Cc1c2c(cn1C)-n1c(C)nnc1C(Cc1nc(C(C)C)no1)N=C2c1ccc(Cl)cc1 (stereo not drawn) [Example 29, 6-(4-Chlorophenyl)-1,7,8-trimethyl-4-{[3-(propan-2-yl)-1,2,4-oxadiazol-5-yl]methyl}-4,8-dihydropyrrolo[3,4-f][1,2,4]triazolo[4,3-a][1,4]diazepine] | 7.52 |  | 7.10 | 
8 | CCNC(=O)C[C@@H]1N=C(c2ccc(Cl)cc2)c2c(cn(C)c2C)-n2c(C)nnc21 [Example 10, (−)-2-[(4S)-6-(4-Chlorophenyl)-1,7,8-trimethyl-4,8-dihydropyrrolo[3,4f][1,2,4]triazolo[4,3-a][1,4]diazepin-4-yl]-N-ethylacetamide] | 6.77 |  | 6.35 | 
9 | Cc1c2c(cn1C)-n1c(C)nnc1[C@H](CC(=O)N1CC(Oc3ccccc3)C1)N=C2c1ccc(Cl)cc1 [Example 20, (−)-2-[(4S)-6-(4-Chlorophenyl)-1,7,8-trimethyl-4,8-dihydropyrrolo[3,4f][1,2,4]triazolo[4,3-a][1,4]diazepin-4-yl]-1-(3-phenoxyazetidin-1-yl)ethanone] | 7.22 |  | 6.04 | 6.39
10 | Cc1nnc2n1-c1cn(C)nc1C(c1ccc(Cl)cc1)=N[C@H]2CC(=O)N1CCS(=O)(=O)CC1 [Example 15, 2-[(4S)-6-(4-Chlorophenyl)-1,8-dimethyl-4,8-dihydropyrazolo[3,4f][1,2,4]triazolo[4,3-a][1,4]diazepin-4-yl]-1-(1,1-dioxidothiomorpholin-4-yl)ethanone] | 6.35 |  | 5.53 | 
11 | Cc1c2c(cn1C)-n1c(C)nnc1[C@H](CC(=O)N1CCOCC1)N=C2c1ccc(Cl)cc1 [Example 21] | 7.40 |  | 6.28 | 6.62
12 | Cc1c2c(cn1C)-n1c(C)nnc1[C@H](CC(=O)N1CCN3C(=O)CCC3C1)N=C2c1ccc(Cl)cc1 (single isomer, unassigned; (-)) [Example 23] | 7.30 |  | 6.06 | 6.33
13 | Cc1nnc2n1-c1cn(C)nc1C(c1ccc(Cl)cc1)=NC2CC(=O)N1CC(F)C1 (stereo not drawn) [Example 17, 2-[6-(4-Chlorophenyl)-1,8-dimethyl-4,8-dihydropyrazolo[3,4-f][1,2,4]triazolo[4,3-a][1,4]diazepin-4-yl]-1-(3-fluoroazetidin-1-yl)ethanone] | 5.94 |  |  | 
14 | Cc1c2c(cn1C)-n1c(C)nnc1[C@H](CC(=O)N1CCOCC1)N=C2c1ccccc1 [Example 19, 1-(Morpholin-4-yl)-2-[(4S)-1,7,8-trimethyl-6-phenyl-4,8-dihydropyrrolo[3,4f][1,2,4]triazolo[4,3-a][1,4]diazepin-4-yl]ethanone] | 6.62 |  | 5.91 | 6.15
15 | Cc1nnc2n1-c1cn(C)nc1C(c1ccc(Cl)cc1)=NC2CC(=O)N1CCOCC1 (stereo not drawn) [Example 16, 2-[6-(4-Chlorophenyl)-1,8-dimethyl-4,8-dihydropyrazolo[3,4-f][1,2,4]triazolo[4,3-a][1,4]diazepin-4-yl]-1-(morpholin-4-yl)ethanone] | 6.15 |  | 5.34 | 
16 | CCc1noc(CC2N=C(c3ccc(Cl)cc3)c3c(cn(C)c3C)-n3c(C)nnc32)n1 (stereo not drawn) [Example 27, 6-(4-Chlorophenyl)-1,7,8-trimethyl-4-[(3-ethyl-1,2,4-oxadiazol-5-yl)methyl]-4,8-dihydropyrrolo[3,4-f][1,2,4]triazolo[4,3-a][1,4]diazepine] | 7.52 |  | 7.00 | 
17 | Cc1noc(CC2N=C(c3ccc(Cl)cc3)c3c(cn(C)c3C)-n3c(C)nnc32)n1 (stereo not drawn) [Example 25, 6-(4-Chlorophenyl)-1,7,8-trimethyl-4-[(3-methyl-1,2,4-oxadiazol-5-yl)methyl]-4,8-dihydropyrrolo[3,4-f][1,2,4]triazolo[4,3-a][1,4]diazepine] | 7.05 |  | 6.89 | 7.10
